Measurements from ChEMBL document CHEMBL1144609, “N-Hydroxythiosemicarbazones: synthesis and in vitro antitubercular activity” (Bioorg Med Chem Lett, 2007).
Values after ≈ are worked out from the molar mass of the structure shown.

Experiments:
[1] = system: Mycobacterium tuberculosis; test: Antimycobacterial activity against Mycobacterium tuberculosis H37Rv by agar dilution method; format: functional
Vero = test: Cytotoxicity against Vero cells after 72 hrs by MTT assay; format: cell-based; conditions: Chlorocebus sabaeus
[2] = Selectivity index, ratio of IC50 for Vero cells to MIC for Mycobacterium tuberculosis H37Rv; format: functional

| Structure (SMILES) | MIC [1] | IC50 (Vero) | Selectivity index [2] |
| --- | --- | --- | --- |
| CN(C)c1ccc(/C=N/NC(=S)NO)cc1 | 52.5 µM (≈ 12.5 µg/mL) |  |  |
| COc1ccc(/C=N/NC(=S)NO)cc1 | 14.9 µM (≈ 3.37 µg/mL) |  |  |
| Cc1ccc(/C=N/NC(=S)NO)cc1 | 13 µM (≈ 2.71 µg/mL) |  |  |
| ONC(=S)N/N=C/c1ccc(Cl)cc1 | 13 µM (≈ 2.99 µg/mL) |  |  |
| ONC(=S)N/N=C/c1ccccc1O | 29.6 µM (≈ 6.25 µg/mL) |  |  |
| O=[N+]([O-])c1ccc(/C=N/NC(=S)NO)cc1 | 6.49 µM (≈ 1.56 µg/mL) | > 260 µM |  |
| C/C(=N\NC(=S)NO)c1ccccc1 | 14.9 µM (≈ 3.13 µg/mL) |  |  |
| C/C(=N\NC(=S)NO)c1ccc(C)cc1 | 6.98 µM (≈ 1.56 µg/mL) | > 280 µM |  |
| C/C(=N\NC(=S)NO)c1ccc(Cl)cc1 | 3.2 µM (≈ 0.78 µg/mL) | > 256 µM |  |
| C/C(=N\NC(=S)NO)c1ccc([N+](=O)[O-])cc1 | 0.78 µM (≈ 0.198 µg/mL) | > 246 µM |  |
| ONC(=S)N/N=C(\c1ccccc1)c1ccc(Br)cc1 | 0.28 µM (≈ 0.0981 µg/mL) | > 178 µM | >625 |
| O=C1Nc2ccc(F)cc2/C1=N/NC(=S)NO | 24.6 µM (≈ 6.25 µg/mL) |  |  |
| COc1cc(/C=N/NC(=S)NO)ccc1O | 27.2 µM (≈ 6.57 µg/mL) |  |  |
| ONC(=S)N/N=C/c1ccccc1 | 64 µM (≈ 12.5 µg/mL) |  |  |
| ONC(=S)N/N=C/c1ccc(O)cc1 | 29.6 µM (≈ 6.25 µg/mL) |  |  |
| O=[N+]([O-])c1ccccc1/C=N/NC(=S)NO | 6.49 µM (≈ 1.56 µg/mL) | > 260 µM |  |
| C/C(=N\NC(=S)NO)c1ccccc1O | 13.9 µM (≈ 3.13 µg/mL) |  |  |
| O=C1Nc2ccccc2/C1=N/NC(=S)NO | 64 µM (≈ 15.1 µg/mL) |  |  |
| CC[C@@H](CO)NCCN[C@@H](CC)CO [ETHAMBUTOL] | 15.3 µM (≈ 3.13 µg/mL) | > 306 µM |  |
| NNC(=O)c1ccncc1 [ISONIAZID] | 0.72 µM (≈ 0.0987 µg/mL) | > 456 µM |  |
| CO[C@H]1/C=C/O[C@@]2(C)Oc3c(C)c(O)c4c(O)c(c(/C=N/N5CCN(C)CC5)c(O)c4c3C2=O)NC(=O)/C(C)=C\C=C\[C@H](C)[C@H](O)[C@@H](C)[C@@H](O)[C@@H](C)[C@H](OC(C)=O)[C@@H]1C [RIFAMPIN] | 0.24 µM (≈ 0.198 µg/mL) | > 75.9 µM |  |
